In assay [1] the test system is monocytes. Kind of assay: TNFα production by monocytes with or without tumor cells (AlphaLISA). In kind it is cell-based, human. The following applies: monocytes with CEA-expressing CHO cells, FIG. 22. The protocol: Monocytes were prepared as follows: PBMCs were isolated from normal human blood using Ficoll purification, and monocytes were enriched from the PBMCs using Stem Cell Technologies Human Monocyte without CD16 Depletion Negative Selection Kits according to the manufacturer's instructions. Monocytes were then slowly frozen and stored in liquid nitrogen. Prior to assay monocytes were thawed and rested overnight at 37° C. in 5% CO2 in assay media (RPMI 1640 media supplemented with 10% FBS, […], 1 mM HEPES, 1× non-essential amino acids, 0.1 mM sodium pyruvate). The following day, monocytes were plated at 4×10^4 cell/well with or without tumor cells at 4×10^4 cell/well in 96-well flat bottom plates in assay media described above. After overnight culture, supernatants were harvested, and TNFα levels were determined by AlphaLISA.

For assay [2], the system named is PBMCs. Kind of assay: TNFα production by PBMCs with antigen-expressing tumor cells (AlphaLISA). In kind it is cell-based, human. To be noted: PBMCs with SKBR3 tumor cells (HER2), 24 hours, FIG. 20. The procedure: Anti-HER2-antiCD40 G1 antibody was prepared as described in Example 18. Pertuzumab was used as the HER2 G1WT antibody. Conjugates were prepared as generally described in Example 15. PBMCs were isolated from human blood as described above. Briefly, PBMCs were isolated by Ficoll gradient centrifugation, resuspended in RPMI, and plated in 96-well flat bottom microtiter plates (125,000/well). Antigen-expressing tumor cells were then added (25,000/well) along with titrating concentrations of conjugates or unconjugated parental antibodies as controls. After overnight culture, supernatants were harvested, and TNFα levels were determined by AlphaLISA.
Referring to FIG. 20, SKBR3 tumor cells were added to PBMCs, prepared as described above. SKBR3 tumor cells express the tumor antigen HER2. Anti-HER2 TLR8 benzazepine agonist conjugates, either monospecific or bispecific with CD40, and conjugated to various TLR8 benzazepine agonists were added. The immune-stimulatory compound-linkers in the conjugates used in the study are identified in TABLES 30 and 31.

Consider “Pertuzumab [HER2 G1WT, reference compound]”, for which the TNFα production entry was “only the CEA conjugate exhibited activity” in assay [1] and “did not stimulate TNFα production” in assay [2].

Source of the values: US20190336615A1, “TUMOR TARGETING CONJUGATES AND METHODS OF USE THEREOF” (SILVERBACK THERAPEUTICS, INC., priority 2017, published 2019).
